Data published in PubChem BioAssay (NCI).
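Grown in 96-well plates, cells were treated for 48 hours with each compound at five concentrations. Insufficient inhibition: endpoint recorded as highest concentration tested. TGI: concentration producing complete growth inhibition.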

What was measured:
Assay in all cases: NCI-60 cell line screen, 48 h
786-0 renal = test system: 786-0 renal
A498 renal = test system: A498 renal
A549 NSCLC = test system: A549 NSCLC
ACHN renal = test system: ACHN renal
BT-549 breast = test system: BT-549 breast
CCRF-CEM leukemia = test system: CCRF-CEM leukemia
COLO 205 colon = test system: COLO 205 colon
DU-145 prostate = test system: DU-145 prostate
EKVX NSCLC = test system: EKVX NSCLC
HCC-2998 colon = test system: HCC-2998 colon
HCT-116 colon = test system: HCT-116 colon
HCT-15 colon = test system: HCT-15 colon
HL-60(TB) leukemia = test system: HL-60(TB) leukemia
HOP-62 NSCLC = test system: HOP-62 NSCLC
HOP-92 NSCLC = test system: HOP-92 NSCLC
HS 578T breast = test system: HS 578T breast
HT29 colon = test system: HT29 colon
IGROV1 ovarian = test system: IGROV1 ovarian
K-562 leukemia = test system: K-562 leukemia
KM12 colon = test system: KM12 colon
M14 melanoma = test system: M14 melanoma
MALME-3M melanoma = test system: MALME-3M melanoma
MCF7 breast = test system: MCF7 breast
MDA-MB-231 breast = test system: MDA-MB-231 breast
MDA-MB-435 = test system: MDA-MB-435
MDA-N = test system: MDA-N
MOLT-4 leukemia = test system: MOLT-4 leukemia
NCI-H226 lung = test system: NCI-H226 lung
NCI-H23 lung = test system: NCI-H23 lung
NCI-H460 lung = test system: NCI-H460 lung
NCI-H522 lung = test system: NCI-H522 lung
NCI/ADR-RES ovarian = test system: NCI/ADR-RES ovarian
OVCAR-3 ovarian = test system: OVCAR-3 ovarian
OVCAR-4 ovarian = test system: OVCAR-4 ovarian
OVCAR-5 ovarian = test system: OVCAR-5 ovarian
OVCAR-8 ovarian = test system: OVCAR-8 ovarian
PC-3 prostate = test system: PC-3 prostate
RPMI-8226 leukemia = test system: RPMI-8226 leukemia
RXF 393 renal = test system: RXF 393 renal
SF-268 CNS = test system: SF-268 CNS
SF-295 CNS = test system: SF-295 CNS
SF-539 CNS = test system: SF-539 CNS
SK-MEL-2 melanoma = test system: SK-MEL-2 melanoma
SK-MEL-28 melanoma = test system: SK-MEL-28 melanoma
SK-MEL-5 melanoma = test system: SK-MEL-5 melanoma
SK-OV-3 ovarian = test system: SK-OV-3 ovarian
SN12C renal = test system: SN12C renal
SNB-19 CNS = test system: SNB-19 CNS
SNB-75 CNS = test system: SNB-75 CNS
SR leukemia = test system: SR leukemia
SW-620 colon = test system: SW-620 colon
TK-10 renal = test system: TK-10 renal
U251 CNS = test system: U251 CNS
UACC-257 melanoma = test system: UACC-257 melanoma
UACC-62 melanoma = test system: UACC-62 melanoma
UO-31 renal = test system: UO-31 renal
LOX IMVI melanoma = test system: LOX IMVI melanoma
T-47D breast = test system: T-47D breast

Which TGI (786-0 renal) does the source give for `CC(C)(Cl)C(Br)CCC(=CCCl)CBr` (mixture of isomers) here?
Its TGI is 3.77 µM.

And the TGI (A498 renal)?
Its TGI is 9.22 µM.

And the TGI (A549 NSCLC)?
Its TGI is 32.8 µM.

And the TGI (ACHN renal)?
The TGI was 7.85 µM.

What about the TGI (BT-549 breast) of the same molecule?
Its TGI is 6.24 µM.

And the TGI (CCRF-CEM leukemia)?
The TGI was over 21.1 µM.

What about the TGI (COLO 205 colon) of the same molecule?
Its TGI is 5.15 µM.

And the TGI (DU-145 prostate)?
Its TGI is 10.7 µM.

What about the TGI (EKVX NSCLC) of the same molecule?
The TGI was 36.1 µM.

And the TGI (HCC-2998 colon)?
Its TGI is 4.22 µM.

And the TGI (HCT-116 colon)?
The TGI was 3.67 µM.

And the TGI (HCT-15 colon)?
Its TGI is 3 µM.

And the TGI (HL-60(TB) leukemia)?
Its TGI is 2600 nM.

And the TGI (HOP-62 NSCLC)?
Its TGI is 8.33 µM.

And the TGI (HOP-92 NSCLC)?
Its TGI is 4.03 µM.

And the TGI (HS 578T breast)?
Its TGI is 16.4 µM.

What about the TGI (HT29 colon) of the same molecule?
The TGI was 3.55 µM.

And the TGI (IGROV1 ovarian)?
Its TGI is 6.73 µM.

And the TGI (K-562 leukemia)?
Its TGI is over 20.1 µM.

What about the TGI (KM12 colon) of the same molecule?
Its TGI is 4.04 µM.

What about the TGI (M14 melanoma) of the same molecule?
Its TGI is 4.05 µM.

And the TGI (MALME-3M melanoma)?
The TGI was 4.85 µM.

What about the TGI (MCF7 breast) of the same molecule?
Its TGI is 2620 nM.

What about the TGI (MDA-MB-231 breast) of the same molecule?
The TGI was 3.5 µM.

And the TGI (MDA-MB-435)?
Its TGI is 3.71 µM.

What about the TGI (MDA-N) of the same molecule?
The TGI was 3.28 µM.

And the TGI (MOLT-4 leukemia)?
The TGI was over 21.2 µM.

And the TGI (NCI-H226 lung)?
Its TGI is 45 µM.

And the TGI (NCI-H23 lung)?
The TGI was 4.28 µM.

What about the TGI (NCI-H460 lung) of the same molecule?
Its TGI is 5.71 µM.

And the TGI (NCI-H522 lung)?
The TGI was 2240 nM.

What about the TGI (NCI/ADR-RES ovarian) of the same molecule?
Its TGI is 24.3 µM.

And the TGI (OVCAR-3 ovarian)?
The TGI was 3.9 µM.

And the TGI (OVCAR-4 ovarian)?
Its TGI is 5.31 µM.

What about the TGI (OVCAR-5 ovarian) of the same molecule?
The TGI was 21.4 µM.

What about the TGI (OVCAR-8 ovarian) of the same molecule?
Its TGI is 5.26 µM.

And the TGI (PC-3 prostate)?
The TGI was 7.22 µM.

What about the TGI (RPMI-8226 leukemia) of the same molecule?
Its TGI is 4.38 µM.

And the TGI (RXF 393 renal)?
Its TGI is 7.57 µM.

What about the TGI (SF-268 CNS) of the same molecule?
Its TGI is 4.21 µM.

And the TGI (SF-295 CNS)?
The TGI was 13 µM.

And the TGI (SF-539 CNS)?
Its TGI is 3.96 µM.

What about the TGI (SK-MEL-2 melanoma) of the same molecule?
Its TGI is 9.93 µM.

And the TGI (SK-MEL-28 melanoma)?
Its TGI is 5.65 µM.

What about the TGI (SK-MEL-5 melanoma) of the same molecule?
The TGI was 11.9 µM.

And the TGI (SK-OV-3 ovarian)?
Its TGI is 31.2 µM.

And the TGI (SN12C renal)?
The TGI was 7.06 µM.

And the TGI (SNB-19 CNS)?
The TGI was 6.87 µM.

What about the TGI (SNB-75 CNS) of the same molecule?
Its TGI is 8.18 µM.

And the TGI (SR leukemia)?
The TGI was 3.92 µM.

And the TGI (SW-620 colon)?
The TGI was 4.43 µM.

What about the TGI (TK-10 renal) of the same molecule?
The TGI was 5.21 µM.

What about the TGI (U251 CNS) of the same molecule?
The TGI was 5.59 µM.

And the TGI (UACC-257 melanoma)?
The TGI was 6.81 µM.

And the TGI (UACC-62 melanoma)?
The TGI was 5.41 µM.

What about the TGI (UO-31 renal) of the same molecule?
The TGI was 3.42 µM.

For `Cn1c2ccccc2c(=O)c2ccc(Cl)cc21`, which TGI (786-0 renal) is on record?
Its TGI is over 10 µM.

What about the TGI (A549 NSCLC) of the same molecule?
The TGI was over 10 µM.

What about the TGI (CCRF-CEM leukemia) of the same molecule?
The TGI was over 10 µM.

And the TGI (COLO 205 colon)?
The TGI was over 10 µM.

What about the TGI (EKVX NSCLC) of the same molecule?
The TGI was over 10 µM.

What about the TGI (HCC-2998 colon) of the same molecule?
The TGI was over 10 µM.

What about the TGI (HCT-116 colon) of the same molecule?
The TGI was over 10 µM.

What about the TGI (HCT-15 colon) of the same molecule?
Its TGI is over 10 µM.

And the TGI (HL-60(TB) leukemia)?
Its TGI is over 10000 nM.

What about the TGI (HOP-62 NSCLC) of the same molecule?
The TGI was over 10 µM.

What about the TGI (HOP-92 NSCLC) of the same molecule?
The TGI was over 10 µM.

What about the TGI (HT29 colon) of the same molecule?
The TGI was over 10 µM.

And the TGI (IGROV1 ovarian)?
The TGI was over 10 µM.

And the TGI (K-562 leukemia)?
Its TGI is over 10 µM.

And the TGI (KM12 colon)?
The TGI was over 10 µM.

And the TGI (LOX IMVI melanoma)?
Its TGI is over 10 µM.

And the TGI (MALME-3M melanoma)?
The TGI was over 10 µM.

What about the TGI (MCF7 breast) of the same molecule?
Its TGI is over 10000 nM.

What about the TGI (MDA-MB-435) of the same molecule?
Its TGI is over 10 µM.

What about the TGI (MDA-N) of the same molecule?
The TGI was over 10 µM.

And the TGI (MOLT-4 leukemia)?
Its TGI is over 10 µM.

And the TGI (NCI-H23 lung)?
The TGI was over 10 µM.

And the TGI (OVCAR-3 ovarian)?
Its TGI is over 10 µM.

And the TGI (OVCAR-4 ovarian)?
Its TGI is over 10 µM.

What about the TGI (OVCAR-8 ovarian) of the same molecule?
Its TGI is over 10 µM.

What about the TGI (PC-3 prostate) of the same molecule?
The TGI was over 10 µM.

What about the TGI (RPMI-8226 leukemia) of the same molecule?
Its TGI is over 10 µM.

And the TGI (RXF 393 renal)?
The TGI was over 10 µM.

What about the TGI (SF-268 CNS) of the same molecule?
Its TGI is over 10 µM.

What about the TGI (SF-295 CNS) of the same molecule?
Its TGI is over 10 µM.

What about the TGI (SF-539 CNS) of the same molecule?
Its TGI is over 10 µM.

And the TGI (SK-MEL-2 melanoma)?
Its TGI is over 10 µM.

And the TGI (SK-MEL-28 melanoma)?
Its TGI is over 10 µM.

What about the TGI (SK-MEL-5 melanoma) of the same molecule?
Its TGI is over 10 µM.

What about the TGI (SK-OV-3 ovarian) of the same molecule?
The TGI was over 10 µM.

And the TGI (SN12C renal)?
The TGI was over 10 µM.

What about the TGI (SNB-19 CNS) of the same molecule?
The TGI was 4 µM.

And the TGI (SNB-75 CNS)?
The TGI was over 10 µM.

And the TGI (SR leukemia)?
The TGI was over 10 µM.

What about the TGI (SW-620 colon) of the same molecule?
The TGI was over 10 µM.

And the TGI (T-47D breast)?
The TGI was over 10 µM.

What about the TGI (TK-10 renal) of the same molecule?
The TGI was over 10 µM.

What about the TGI (UACC-62 melanoma) of the same molecule?
The TGI was over 10 µM.
